In brackets after ≈: the same amount, converted by molar mass.
What was measured:
[1] = Aqueous solubility (slurry in pH 7 buffer, UPLC); type: physicochemical; conditions: aqueous buffer, thermodynamic from solid; pH 7.4 in PBS buffer solution; read-out: Solubility
Protocol: Aqueous solubility of the compounds was measured by suspending, sonicating (30 minutes), and slurrying (2 hours, 1000 rpm) excess solid (typically 5-10 mg) in phosphate buffered saline at pH 7, or equivalent pH 7 buffer. The suspension was then sonicated again for 30 minutes and stirred again at 1000 rpm for at least 6-24 hours. Approximately 400 μL of sample was removed and placed into spin filters. Each sample was spun at 14K rpm for 10 minutes using a 0.45 μm PVDF spin filter. A portion of the filtrate was removed and diluted with 1:1 ACN:H2O. The resultant samples were analyzed using UPLC analysis. Retains of the solids were checked by XRPD to determine if the material was crystalline or amorphous. Solubility of Compound A was measured at 140 μg/mL at pH 7.4 in PBS buffer solution.

human PDE10 enzyme = target: T1, human PDE10 enzyme (Homo sapiens, UniProt Q9Y233); test: PDE10 fluorescence polarization (IMAP FP) inhibition assay; type: biochemical; conditions: 'generally less than about'
T1 construct: made in house; host or cells: AD293 cells, transiently transfected; the supernatant (cytoplasmic fraction) of the sonicated lysate served as enzyme
T1 sequence (Q9Y233 267-1055): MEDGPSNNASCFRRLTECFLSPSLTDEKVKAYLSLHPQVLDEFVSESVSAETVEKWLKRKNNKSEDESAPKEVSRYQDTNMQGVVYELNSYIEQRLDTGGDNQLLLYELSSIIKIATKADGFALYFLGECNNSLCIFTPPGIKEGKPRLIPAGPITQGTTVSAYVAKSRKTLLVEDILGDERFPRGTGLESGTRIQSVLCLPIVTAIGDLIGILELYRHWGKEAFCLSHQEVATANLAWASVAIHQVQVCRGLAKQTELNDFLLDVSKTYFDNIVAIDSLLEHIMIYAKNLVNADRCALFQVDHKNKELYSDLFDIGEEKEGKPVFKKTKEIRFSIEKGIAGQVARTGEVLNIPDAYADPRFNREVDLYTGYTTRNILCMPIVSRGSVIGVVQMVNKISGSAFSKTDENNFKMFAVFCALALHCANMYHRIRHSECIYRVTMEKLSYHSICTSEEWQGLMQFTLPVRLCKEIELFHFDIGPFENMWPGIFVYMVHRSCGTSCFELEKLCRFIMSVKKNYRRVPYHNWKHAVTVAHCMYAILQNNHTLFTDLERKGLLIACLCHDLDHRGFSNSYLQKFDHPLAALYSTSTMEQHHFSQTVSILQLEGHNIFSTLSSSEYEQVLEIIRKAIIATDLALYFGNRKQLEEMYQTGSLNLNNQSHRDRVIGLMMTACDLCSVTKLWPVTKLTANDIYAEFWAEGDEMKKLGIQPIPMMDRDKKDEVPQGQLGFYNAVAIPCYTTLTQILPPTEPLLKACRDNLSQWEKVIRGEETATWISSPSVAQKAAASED
Protocol: The activity of the compounds in accordance with the present invention as PDE10 inhibitors may be readily determined without undue experimentation using a fluorescence polarization (FP) methodology that is well known in the art (Huang, W., et al., J. Biomol Screen, 2002, 7: 215).
In a typical experiment the PDE10 inhibitory activity of compounds such as Compound A was determined in accordance with the following experimental method. PDE10A2 was amplified from human fetal brain cDNA (Clontech, Mountain View, CA) using a forward primer corresponding to nucleotides 56-77 of human PDE10A2 (Accession No. AF127480, Genbank Identifier 4894716), containing a Kozak consensus sequence, and a reverse primer corresponding to nucleotides 2406-2413 of human PDE10A2 (Accession No. AF127480, Genbank Identifier 4894716). Amplification with Easy-A polymerase (Stratagene, La Jolla, CA) was 95° C. for 2 minutes followed by thirty three cycles of 95° C. for 40 seconds, 55° C. for 30 seconds, and 72° C. for 2 minutes 48 seconds. Final extension was 72° C. for 7 minutes. […] The fluorescence polarization assay for cyclic nucleotide phosphodiesterases was performed using an IMAP® FP kit supplied by Molecular Devices, Sunnyvale, CA (product #R8139). […] 0% of inhibition is determined by using DMSO (1% final concentrations). […]

solubility [1]: 140 µg/mL (≈ 366 µM)
Ki (human PDE10 enzyme): < 1000 nM
SMILES: Cc1ccc([C@H]2C[C@@H]2COc2cc(NCc3nnc(C)s3)nc(C)n2)nc1 [Compound A, 2-methyl-N-((5-methyl-1,3,4-thiadiazol-2-yl)methyl)-6-(((1S,2S)-2-(5-methylpyridin-2-yl)cyclopropyl)methoxy)pyrimidin-4-amine, reference compound]

Source: patent publication US12215101B2, “Pro drugs of PDE10 compounds” (Merck Sharp & Dohme LLC, priority 2021, dated 2025)
